Measurements taken from US10072005B2, “4-azaindole derivatives” (EISAI R&D MANAGEMENT CO., LTD., priority 2013, dated 2018).
Like-named read-outs stand apart in the source and are kept apart here.

Biological target: mAChR M1 (Homo sapiens, UniProt P11229)
Experiment: In vitro cellular calcium flux assay, positive allosteric modulation of mAChR M1
Assay type: cell-based
Experimental: Baby hamster kidney cells stably expressing human or rat mAChR M1 to M5 were utilised for primary and selectivity profiling activities. mAChR M2 and M4 cell lines also stably expressed the chimeric Gαqi5 G-protein.
Human mAChR M1, M3, M5 and rat M1 cells were grown in low glucose Dulbecco's Modified Eagle's Medium (DMEM) medium plus heat inactivated 10% fetal bovine serum (HI FBS) and 500 μg/ml hygromycin B^1. Human mAChR M2 and M4 cells were maintained as above with^2 the addition of 500 μg/ml G418 to the media. Cells were maintained in culture at 37° C./5% CO2 and passaged twice weekly by treatment with 0.05% Trypsin/EDTA detachment solution, centrifugation (200 g, 5 min) and re-suspension in fresh media. Following cell expansion, cells were cryopreserved at −80° C. by treatment with 0.05% Trypsin/EDTA detachment solution, centrifugation (200 g, 5 min) and re-suspension of the pellet in freezing media (90% HI FBS/10% DMSO^3) at 15E6 cells/ml^4.
Prior to assaying, cells were prepared by thawing at 37° C. in a water bath, centrifugation (200 g, 5 min) and re-suspension of the pellet in fresh media. 15000 cells per well were seeded in black, clear bottomed 384-well Greiner Bio-One plates in plating medium (DMEM/10% HI FBS) and incubated overnight at 37 C/5% CO2.
On the day of the assay, media was removed from each well and replaced with 50 μl^5 assay buffer (HBSS with 20 mM HEPES and 2.5 mM Probenecid) containing the calcium indicator, Calcium 4 (Molecular Devices). Cells were then incubated at 37° C./5% CO2 for 30 min and at room temperature.
Compound preparation was carried out by generation of 11-point, 1 in 3 serial dilution concentration response curves in 100% DMSO. Compound was then diluted 1 in 65^6 with assay buffer (HBSS with 20 mM HEPES and 2.5 mM Probenecid) prior to the addition of 10 ul^7 to the cells using a Tetra fluorometric imaging plate reader (Molecular Devices)^8. Compound driven increases in intracellular calcium flux was measured as an increase in fluorescence (494Ex, 516Em)^9.
Positive allosteric modulator pEC50 values and antagonist pIC50 values for each compound were then determined. […] The points of modification and the alternate reagents, concentrations or equipment employed in these examples were: ^1200 μg/ml hygromycin B; ^2G418 not added; ^3CELLBANKER 1; ^410E6; ^5 40 μl; ^6 1 in 99; ^7 20 μl; ^8FDSS6000 (Hamamatsu Photonics); ^9(480Ex, 540Em); ^10Spotfire (TIBCO).

[1] = BHK cells expressing mAChR M1, EC20 carbachol, Examples 76-80 and 82-89 slightly modified procedure

Chain of mAChR M1 (P11229 whole entry, looked up): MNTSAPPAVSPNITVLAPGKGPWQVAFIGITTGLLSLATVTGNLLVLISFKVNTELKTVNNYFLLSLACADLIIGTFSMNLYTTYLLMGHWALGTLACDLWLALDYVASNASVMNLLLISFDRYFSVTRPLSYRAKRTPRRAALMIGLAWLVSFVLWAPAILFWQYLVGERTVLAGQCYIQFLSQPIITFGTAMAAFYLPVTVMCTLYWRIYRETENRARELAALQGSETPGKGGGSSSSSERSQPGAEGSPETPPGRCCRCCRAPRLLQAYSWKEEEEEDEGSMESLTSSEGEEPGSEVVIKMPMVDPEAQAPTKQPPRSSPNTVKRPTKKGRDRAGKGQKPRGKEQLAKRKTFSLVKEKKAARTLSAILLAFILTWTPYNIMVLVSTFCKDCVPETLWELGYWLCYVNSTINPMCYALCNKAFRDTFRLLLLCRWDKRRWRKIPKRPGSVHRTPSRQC

Compound | pEC50 for positive allosteric modulation [1] | other results
O=C(N[C@@H]1CCOC[C@H]1O)c1cn(Cc2cccc(F)c2)c2c(Cl)ccnc12 (single isomer, unassigned) [Example 86, 7-Chloro-1-(3-fluorobenzyl)-N-(trans-3-hydroxytetrahydro-2H-pyran-4-yl)-1H-pyrrolo[3,2-b]pyridine-3-carboxamide] |  | EC50: 25.1 nM
Cc1ccc(Cn2cc(C(=O)N[C@H]3CCCC[C@@H]3O)c3ncccc32)cc1 [Example 1, N-((1S,2S)-2-hydroxycyclohexyl)-1-(4-methylbenzyl)-1H-pyrrolo[3,2-b]pyridine-3-carboxamide] | 7.0 | 
O=C(N[C@H]1CCCC[C@@H]1O)c1cn(Cc2cc(F)cc(F)c2)c2cccnc12 [Example 2, 1-(3,5-Difluorobenzyl)-N-((1S,2S)-2-hydroxycyclohexyl)-1H-pyrrolo[3,2-b]pyridine-3-carboxamide] | 6.7 | 
O=C(N[C@H]1CCCC[C@@H]1O)c1cn(Cc2cc(F)ccc2F)c2cccnc12 [Example 3, 1-(2,5-Difluorobenzyl)-N-((1S,2S)-2-hydroxycyclohexyl)-1H-pyrrolo[3,2-b]pyridine-3-carboxamide] | 6.8 | 
O=C(N[C@H]1CCCC[C@@H]1O)c1cn(Cc2cccc(F)c2)c2cccnc12 [Example 4, 1-(3-Fluorobenzyl)-N-((1S,2S)-2-hydroxycyclohexyl)-1H-pyrrolo[3,2-b]pyridine-3-carboxamide] | 6.8 | 
Cc1nc(Cn2cc(C(=O)N[C@H]3CCCC[C@@H]3O)c3ncccc32)cs1 [Example 7, N-((1S,2S)-2-Hydroxycyclohexyl)-1-((2-methylthiazol-4-yl)methyl)-1H-pyrrolo[3,2-b]pyridine-3-carboxamide] | 5.9 | 
O=C(N[C@H]1CCCC[C@@H]1O)c1cn(Cc2ccc(OC(F)(F)F)cc2)c2cccnc12 [Example 9, N-((1S,2S)-2-Hydroxycyclohexyl)-1-(4-(trifluoromethoxy)benzyl)-1H-pyrrolo[3,2-b]pyridine-3-carboxamide] | 6.6 | 
O=C(N[C@H]1CCCC[C@@H]1O)c1cn(Cc2ccc(F)cc2)c2c(Cl)ccnc12 [Example 14, 7-Chloro-1-(4-fluorobenzyl)-N-((1S,2S)-2-hydroxycyclohexyl)-1H-pyrrolo[3,2-b]pyridine-3-carboxamide] | 7.3 | 
O=C(N[C@H]1CCCC[C@@H]1O)c1cn(Cc2cccc(F)c2F)c2c(Cl)ccnc12 [Example 15, 7-Chloro-1-(2,3-difluorobenzyl)-N-((1S,2S)-2-hydroxycyclohexyl)-1H-pyrrolo[3,2-b]pyridine-3-carboxamide] | 7.0 | 
Cc1cccc(Cn2cc(C(=O)N[C@H]3CCCC[C@@H]3O)c3nccc(Cl)c32)n1 [Example 16, 7-Chloro-N-((1S,2S)-2-hydroxycyclohexyl)-1-((6-methylpyridin-2-yl)methyl)-1H-pyrrolo[3,2-b]pyridine-3-carboxamide] | 6.5 | 
O=C(N[C@H]1CCCC[C@@H]1O)c1cn(Cc2ccc(F)cn2)c2c(Cl)ccnc12 [Example 17, 7-Chloro-1-((5-fluoropyridin-2-yl)methyl)-N-((1S,2S)-2-hydroxycyclohexyl)-1H-pyrrolo[3,2-b]pyridine-3-carboxamide] | 6.9 | 
O=C(NC1(CO)CCCC1)c1cn(Cc2ccc(F)cc2)c2cccnc12 [Example 21, 1-(4-Fluorobenzyl)-N-(1-(hydroxymethyl)cyclopentyl)-1H-pyrrolo[3,2-b]pyridine-3-carboxamide] | 5.7 | 
O=C(N[C@H]1CCCC[C@@H]1O)c1cn(Cc2ccccc2F)c2cccnc12 [Example 22, 1-(2-Fluorobenzyl)-N-((1S,2S)-2-hydroxycyclohexyl)-1H-pyrrolo[3,2-b]pyridine-3-carboxamide] | 6.5 | 
O=C(N[C@H]1CCCC[C@@H]1O)c1cn(Cc2ccc(Cl)cc2)c2cccnc12 [Example 23, 1-(4-Chlorobenzyl)-N-((1S,2S)-2-hydroxycyclohexyl)-1H-pyrrolo[3,2-b]pyridine-3-carboxamide] | 6.6 | 
O=C(N[C@H]1CCCC[C@@H]1O)c1cn(Cc2ccc(F)cc2F)c2cccnc12 [Example 24, 1-(2,4-Difluorobenzyl)-N-((1S,2S)-2-hydroxycyclohexyl)-1H-pyrrolo[3,2-b]pyridine-3-carboxamide] | 6.5 | 
Cc1ccc(Cn2cc(C(=O)N[C@H]3CCCC[C@@H]3O)c3ncccc32)cn1 [Example 25, N-((1S,2S)-2-Hydroxycyclohexyl)-1-((6-methylpyridin-3-yl)methyl)-1H-pyrrolo[3,2-b]pyridine-3-carboxamide] | 6.2 | 
Cc1ccc(Cn2cc(C(=O)N[C@H]3CCCC[C@@H]3O)c3ncccc32)nc1 [Example 26, N-((1S,2S)-2-Hydroxycyclohexyl)-1-((5-methylpyridin-2-yl)methyl)-1H-pyrrolo[3,2-b]pyridine-3-carboxamide] | 6.1 | 
O=C(NC1CCOCC1)c1cn(Cc2ccc(F)cc2)c2cccnc12 [Example 29, 1-(4-Fluorobenzyl)-N-(tetrahydro-2H-pyran-4-yl)-1H-pyrrolo[3,2-b]pyridine-3-carboxamide] | 5.8 | 
O=C(NC1CCNCC1)c1cn(Cc2ccc(F)cc2)c2cccnc12 [Example 30, 1-(4-Fluorobenzyl)-N-(piperidin-4-yl)-1H-pyrrolo[3,2-b]pyridine-3-carboxamide] | 6.5 | 
CN1CCC(NC(=O)c2cn(Cc3ccc(F)cc3)c3cccnc23)CC1 [Example 31, 1-(4-Fluorobenzyl)-N-(1-methylpiperidin-4-yl)-1H-pyrrolo[3,2-b]pyridine-3-carboxamide] | 6.5 | 
N#Cc1ccnc2c(C(=O)N[C@H]3CCCC[C@@H]3O)cn(Cc3ccc(F)cc3)c12 [Example 32, 7-Cyano-1-(4-fluorobenzyl)-N-((1S,2S)-2-hydroxycyclohexyl)-1H-pyrrolo[3,2-b]pyridine-3-carboxamide] | 6.7 | 
COc1ccnc2c(C(=O)N[C@H]3CCCC[C@@H]3O)cn(Cc3ccc(F)cc3)c12 [Example 37, 1-(4-Fluorobenzyl)-N-((1S,2S)-2-hydroxycyclohexyl)-7-methoxy-1H-pyrrolo[3,2-b]pyridine-3-carboxamide] | 6.7 | 
COc1ccc2c(n1)c(C(=O)N[C@H]1CCCC[C@@H]1O)cn2Cc1ccc(F)cc1 [Example 38, 1-(4-Fluorobenzyl)-N-((1S,2S)-2-hydroxycyclohexyl)-5-methoxy-1H-pyrrolo[3,2-b]pyridine-3-carboxamide] | 5.8 | 
O=C(N[C@H]1CCCC[C@@H]1O)c1cn(Cc2ccc(F)cc2)c2ccc(Cl)nc12 [Example 39, 5-Chloro-1-(4-fluorobenzyl)-N-((1S,2S)-2-hydroxycyclohexyl)-1H-pyrrolo[3,2-b]pyridine-3-carboxamide] | 6.0 | 
Cc1ccc2c(n1)c(C(=O)N[C@H]1CCCC[C@@H]1O)cn2Cc1ccc(-n2cccn2)cc1 [Example 40, 1-(4-(1H-Pyrazol-1-yl)benzyl)-N-((1S,2S)-2-hydroxycyclohexyl)-5-methyl-1H-pyrrolo[3,2-b]pyridine-3-carboxamide] | 6.5 | 
N#Cc1ccc2c(n1)c(C(=O)N[C@H]1CCCC[C@@H]1O)cn2Cc1ccc(-n2cccn2)cc1 [Example 41, 1-(4-(1H-Pyrazol-1-yl)benzyl)-5-cyano-N-((1S,2S)-2-hydroxycyclohexyl)-1H-pyrrolo[3,2-b]pyridine-3-carboxamide] |  | EC50 (BHK cells expressing mAChR M1, EC20 carbachol, Examples 76-80 and 82-89 slightly modified procedure, read-out: pEC50 for positive allosteric modulation (converted)): 316 nM
Cn1ccnc1-c1ccc(Cn2cc(C(=O)N[C@H]3CCCC[C@@H]3O)c3ncccc32)cc1 [Example 42, N-((1S,2S)-2-Hydroxycyclohexyl)-1-(4-(1-methyl-1H-imidazol-2-yl)benzyl)-1H-pyrrolo[3,2-b]pyridine-3-carboxamide] | 7.0 | 
Cc1cccc(-c2ccc(Cn3cc(C(=O)N[C@H]4CCCC[C@@H]4O)c4ncccc43)c(F)c2)n1 [Example 44, 1-(2-Fluoro-4-(6-methylpyridin-2-yl)benzyl)-N-((1S,2S)-2-hydroxycyclohexyl)-1H-pyrrolo[3,2-b]pyridine-3-carboxamide] | 6.9 | 
